# Test results taken from patent EP1180991B1, “GAMBOGIC ACID DERIVATIVES AS ACTIVATORS OF CASPASES AND INDUCERS OF APOPTOSIS” (Cytovia, Inc., priority 1999, dated 2000).
# Like-named read-outs stand apart in the source and are kept apart here.
# Experiments:
# [1] = tested on: T-47D; assay: Caspase cascade activation by known antineoplastic compounds (Example 92); details: 24 h; for fold induction at 10 µM: Homo sapiens, T47D, read-out: ratio of the net RFU value for test compounds to that of control samples (caspase cascade activation)
# Method: (§8) The samples were mixed by agitation and then incubated at 37° C for 24 h in a 5% CO2-95% humidity incubator. […] The samples were mixed by agitation and incubated for 3 h at room temperature. […] After the 3 h incubation, the samples were read for fluorescence as above (T = 3 h).
# (§9) The Relative Fluorescence Unit values (RFU) were used to calculate the sample readings as follows: RFU(T=3⁢hr) −Control RFU(T=0) = Net RFU(T=3⁢hr) [formula]
# (§10) The activity in caspase cascade activation was determined by the ratio of the net RFU value for test compounds to that of control samples.
# [2] = tested on: PC-3; assay: as above; details: for fold induction at 10 µM: Homo sapiens, PC-3, 24 h, read-out: ratio of the net RFU value for test compounds to that of control samples (caspase cascade activation)
# Method: as §8, §9, §10
# [3] = tested on: HL-60; assay: Caspase cascade activation assay (Example 90); format: cell-based, human; details: for caspase activity (Ratio): HL-60, 24 h incubation, 0.16 to 10 µM final, net RFU ratio to control
# Method: (§1) Human breast cancer cell lines T-47D and ZR-75-1, human prostate cancer cell line PC-3, human leukemia cancer cell line HL-60 and human non-transformed fibroblast cell line MRC-5 cells were grown according to media component mixtures designated by The American Type Culture Collection + 10% FCS (Life Technologies, Inc.), in a 5% CO2 -95% humidity incubator at 37° C. T-47D, ZR-75-1 and PC-3 cells were maintained at a cell density between 30 and 80% confluency and for HL-60 at a cell density of 0.1 to 0.6 x 10^6 cells/ml. Cells were harvested at 600xg and resuspended at 0.65 x 10^6 cells/ml into appropriate media + 10% FCS. […] The samples were mixed by agitation and incubated at room temperature.
# (§2) The EC50 (nM) was determined by a sigmoidal dose-response calculation (Prism 2.0, GraphPad Software Inc.). Caspase Activity and Potency
# [4] = tested on: MRC-5; assay: Caspase cascade activation assay (Example 90); format: cell-based, human; details: for caspase activity (Ratio): 0.16 to 10 µM final, net RFU ratio to control; for EC50: Homo sapiens
# Method: as §1, §2
# [5] = tested on: PC-3; assay: Caspase cascade activation assay (Example 90); format: cell-based, human; details: for caspase activity (Ratio): 0.16 to 10 µM final, net RFU ratio to control; for EC50: Homo sapiens
# Method: as §1, §2
# [6] = tested on: T-47D; assay: Caspase cascade activation assay (Example 90); format: cell-based, human; details: for caspase activity (Ratio): 0.16 to 10 µM final, net RFU ratio to control; for EC50: Homo sapiens, T47D
# Method: as §1, §2
# [7] = tested on: ZR-75-1; assay: Caspase cascade activation assay (Example 90); format: cell-based, human; details: for caspase activity (Ratio): 0.16 to 10 µM final, net RFU ratio to control; for EC50: Homo sapiens
# Method: as §1, §2
# [8] = tested on: A-549; assay: Inhibition of cell proliferation (GI50) and cell death (LC50), CellTiter 96 (Example 91); format: cell-based; details: Homo sapiens, A549, 48 h
# Method: (§3) T-47D, ZR-75-1, PC-3, human prostate cancer cell line DU-145, human non-small cell lung cancer cell line A-549, human small cell lung cancer cell line SHP-77, HL-60 and MRC-5 cells were grown and harvested as in Example 90. […] The samples were mixed by agitation and incubated at 37° C for 2-4 h in a 5% CO2-95% humidity incubator. […] This determines the possible background absorbance of the test compounds. No absorbance for gambogic acid or its analogs or derivatives was found at 490 nm. After the 2-4 h incubation, the samples were read for absorbance as above (ATest).
# (§4) The samples were mixed by agitation and incubated at 37° C for 2-4 h in a 5% CO2-95% humidity incubator. Absorbance was read as above, (AT=0) defining absorbance for initial cell number used as baseline in GI50 determinations and (Amin) defining absorbance for media alone used as baseline in LC50 determinations.
# (§5) GI50 (dose for50%inhibition of cell proliferation) 50 = 100 x [(ATest-AT = 0)/(Amax-AT = 0)] [formula] LC50 (dose for50%cell death) 50 = 100 x [(ATest-Amin)/(AT = 0-Amin)] [formula]
# [9] = tested on: DU-145; assay: as above; format: cell-based; details: Homo sapiens, DU-145, 48 h
# Method: as §3, §4, §5
# [10] = tested on: HL-60; assay: as above; format: cell-based; details: Homo sapiens, HL-60, 48 h
# Method: as §3, §4, §5
# [11] = tested on: PC-3; assay: as above; format: cell-based; details: Homo sapiens, PC-3, 48 h
# Method: as §3, §4, §5
# [12] = tested on: SHP-77; assay: as above; format: cell-based; details: Homo sapiens, SHP77, 48 h
# Method: as §3, §4, §5
# [13] = tested on: T-47D; assay: as above; format: cell-based; details: Homo sapiens, T47D, 48 h
# Method: as §3, §4, §5
# [14] = tested on: ZR-75-1; assay: as above; format: cell-based; details: Homo sapiens, ZR-75-1, 48 h
# Method: as §3, §4, §5
# [15] = tested on: MRC-5; assay: as above; format: cell-based, human
# Method: as §3, §4, §5
# [16] = tested on: several cancer cell lines; details: cited from earlier work
# [17] = tested on: KB; details: Lin et al. 1993; cited from earlier work
# [18] = tested on: KB-V1; details: Lin et al. 1993; cited from earlier work
# [19] = tested on: PC3 cells; assay: PARP cleavage, western blot (Example 98); format: cell-based, human; details: 1 µM, 2 h and 4 h (Fig. 5D)
# Method: (§6) Cleavage of the enzyme poly(ADP)ribose polymerase (PARP) by caspase-3 and related proteases is considered to be one of the molecular hallmarks of caspase-mediated apoptosis. Therefore, the ability of gambogic acid to induce PARP cleavage in four different human tumor cell lines (Jurkat cells, HL-60 cells, T47D cells and PC3 cells) was determined.
# (§7) […] Control cultures were treated with a drug vehicle (DMSO), or the well-characterized apoptosis inducer, staurosporine. At the end of the apoptosis induction period, the cells were harvested, washed once with PBS, quick-frozen on dry ice, and stored at -80° C. The cells were then lysed in a standard immunoblotting lysis buffer and samples of the lysates were electrophoresed on 4% to 20% gradient polyacrylamide gels. The proteins in the gels were then transferred to PVDF membranes and probed with a commercially-available rabbit polyclonal antibody to PARP.
# [20] = tested on: T47D cells; assay: PARP cleavage, western blot (Example 98); format: cell-based, human; details: 1 µM, 2 h and 4 h (Fig. 5C)
# Method: as §6, §7
# [21] = MRC-5 non-transformed fibroblasts, 24 h incubation
# [22] = PC-3, caspase activation, 24 h incubation, read-out: EC50
# [23] = T-47D, caspase activation, 24 h incubation, read-out: EC50
compound,measurement,setting,value
O=c1[nH]cc(F)c(=O)[nH]1 [5-fluorouracil],fold induction at 10 µM,[1],0.8
same,fold induction at 10 µM,[2],0.7
CC[C@@]1(O)C(=O)OCc2c1cc1n(c2=O)Cc2cc3ccccc3nc2-1 [Camptothecin],fold induction at 10 µM,[1],0.7
same,fold induction at 10 µM,[2],0.6
N.N.[Cl][Pt][Cl] [Cisplatin],ratio of the net RFU value for test compounds to that of control samples (caspase cascade activation),"[1]; T-47D, 10 µM final, ratio around 1 = not an efficient activator",1.1
same,ratio of the net RFU value for test compounds to that of control samples (caspase cascade activation),"[2]; PC-3, 10 µM final, 24 h, ratio around 1 = not an efficient activator",0.9
COc1cccc2c1C(=O)c1c(O)c3c(c(O)c1C2=O)C[C@@](O)(C(=O)CO)C[C@@H]3O[C@H]1C[C@H](N)[C@H](O)[C@H](C)O1 [Doxorubicin],fold induction at 10 µM,[1],1.3
same,fold induction at 10 µM,[2],1.1
COc1cc([C@@H]2c3cc4c(cc3[C@@H](O[C@@H]3O[C@@H]5CO[C@@H](C)O[C@H]5[C@H](O)[C@H]3O)[C@H]3COC(=O)[C@H]23)OCO4)cc(OC)c1O [Etoposide],fold induction at 10 µM,[1],1
same,fold induction at 10 µM,[2],0.8
"CC(C)=CCC/C(C)=C/Cc1c(O)c(CC=C(C)C)c2c(c1O)C(=O)C1=CC3CC4C(C)(C)OC(C/C=C(/C)C(=O)O)(C3=O)C14O2 (stereo not shown) [Example 2, Gambogenic Acid]",caspase activity (Ratio),[3],5.6
same,caspase activity (Ratio),[4]; [21],22.4
same,caspase activity (Ratio),"[5]; PC-3, 24 h incubation",2.9
same,caspase activity (Ratio),"[6]; T-47D, 24 h incubation",16.9
same,caspase activity (Ratio),"[7]; ZR-75-1, 24 h incubation",14.2
"CC(C)=CCC/C(C)=C/Cc1c(O)c(CC=C(C)C)c2c(c1O)C(=O)C1=CC3CC4C(C)(C)OC(C/C=C(/C)C=O)(C3=O)C14O2 (stereo not shown) [Example 3, Gambogenin]",EC50,[5]; [22],1.7 µM
same,caspase activity (Ratio),"[5]; PC-3, 24 h incubation",2.9
same,EC50,[6]; [23],1 µM
same,caspase activity (Ratio),"[6]; T-47D, 24 h incubation",7.0
"COC(=O)/C(C)=C\CC12OC(C)(C)C3CC(C=C4C(=O)c5c(O)c6c(c(CC=C(C)C)c5OC431)OC(C)(CCC=C(C)C)C=C6)C2=O (stereo not shown) [Example 4, Methyl Gambogate]",caspase activity (Ratio),[3],7.7
same,EC50,"[3]; Homo sapiens, HL-60, 24 h",0.339 µM
same,EC50,"[4]; MRC5, 24 h",0.501 µM
same,caspase activity (Ratio),[4]; [21],27.8
same,EC50,"[5]; PC-3, 24 h",1.33 µM
same,caspase activity (Ratio),"[5]; PC-3, 24 h incubation",3.9
same,EC50,[6]; 24 h,0.484 µM
same,caspase activity (Ratio),"[6]; T-47D, 24 h incubation",16.8
same,EC50,"[7]; ZR-75-1, 24 h",1.64 µM
same,caspase activity (Ratio),"[7]; ZR-75-1, 24 h incubation",14.9
same,GI50,[8],0.5 µM
same,CC50,[8]; read-out: LC50,2 µM
same,GI50,[9],0.5 µM
same,CC50,[9]; read-out: LC50,0.5 µM
same,GI50,[10],0.05 µM
same,CC50,[10]; read-out: LC50,0.5 µM
same,GI50,[11],0.5 µM
same,CC50,[11]; read-out: LC50,0.5 µM
same,GI50,[12],0.5 µM
same,CC50,[12]; read-out: LC50,0.5 µM
same,GI50,[13],0.04 µM
same,CC50,[13]; read-out: LC50,0.05 µM
same,GI50,[14],0.3 µM
same,CC50,[14]; read-out: LC50,0.5 µM
same,GI50,"[15]; Homo sapiens, MRC5, 48 h",0.2 µM
same,CC50,"[15]; MRC-5 non-transformed fibroblasts, 48 h, dose for 50% cell death",0.5 µM
"CC(C)=CCCC1(C)C=Cc2c(O)c3c(c(CC=C(C)C)c2O1)OC12C(=CC4CC1C(C)(C)OC2(C/C=C(/C)C(=O)N1CCCCC1)C4=O)C3=O (stereo not shown) [Example 5, Gambogyl Piperidine]",caspase activity (Ratio),[3],5.2
same,caspase activity (Ratio),[4]; [21],12.6
same,caspase activity (Ratio),"[5]; PC-3, 24 h incubation",2.7
same,caspase activity (Ratio),"[6]; T-47D, 24 h incubation",13.9
same,caspase activity (Ratio),"[7]; ZR-75-1, 24 h incubation",14.3
"COC(=O)/C(C)=C\CC12OC(C)(C)C3CC(C=C4C(=O)c5c(OC)c6c(c(CC=C(C)C)c5OC431)OC(C)(CCC=C(C)C)C=C6)C2=O (stereo not shown) [Example 6, Methyl-6-methoxy-gambogate]",caspase activity (Ratio),"[5]; PC-3, 24 h incubation",4.5
same,caspase activity (Ratio),"[6]; T-47D, 24 h incubation",12.0
"COc1c2c(c(CC=C(C)C)c3c1C(=O)C1=CC4CC5C(C)(C)OC(C/C=C(/C)C(=O)N6CCCCC6)(C4=O)C15O3)OC(C)(CCC=C(C)C)C=C2 (stereo not shown) [Example 7, 6-Methoxy-gambogyl Piperidine]",EC50,"[4]; MRC5, MRC-5 non-transformed fibroblasts, caspase activation, 24 h incubation, read-out: EC50",1.2 µM
same,EC50,[5]; [22],1.7 µM
same,EC50,[6]; [23],0.83 µM
same,EC50,"[7]; ZR-75-1, caspase activation, 24 h incubation, read-out: EC50",1.65 µM
"CC(C)=CCc1c2c(c(O)c3c1OC14C(=CC5CC1C(C)(C)OC4(C/C=C(/C)C(=O)O)C5=O)C3=O)C=CC(C)(C)O2 (stereo not shown) [Example 19, Morellic Acid]",cytotoxicity,"[16]; several cancer cell lines, Cao et al. 1998",significant cytotoxicity
CN(Cc1cnc2nc(N)nc(N)c2n1)c1ccc(C(=O)N[C@@H](CCC(=O)O)C(=O)O)cc1 [Methotrexate],fold induction at 10 µM,[1],0.8
same,fold induction at 10 µM,[2],0.7
CC(=O)O[C@H]1C(=O)[C@@]2(C)[C@H]([C@H](OC(=O)c3ccccc3)[C@]3(O)C[C@H](OC(=O)[C@H](O)[C@@H](NC(=O)c4ccccc4)c4ccccc4)C(C)=C1C3(C)C)[C@]1(OC(C)=O)CO[C@@H]1C[C@@H]2O [Taxol],fold induction at 10 µM,[1],0.9
same,fold induction at 10 µM,[2],0.7
CC[C@]1(O)C[C@@H]2CN(CCc3c([nH]c4ccccc34)[C@@](C(=O)OC)(c3cc4c(cc3OC)N(C)[C@H]3[C@@](O)(C(=O)OC)[C@H](OC(C)=O)[C@]5(CC)C=CCN6CC[C@]43[C@@H]65)C2)C1 [Vinblastine],fold induction at 10 µM,[1],0.9
same,fold induction at 10 µM,[2],0.8
"CC(C)=CCc1c(O)cc(O)c2c1O[C@]13C(=C[C@@H]4C[C@H]1C(C)(C)O[C@@]3(CC=C(C)C)C4=O)C2=O [forbesione, reference compound]",cytotoxicity,[16],significant cytotoxicity
"CC(C)=CCc1c2c(c(O)c3c1OC14C(=CC5CC1C(C)(C)OC4(C/C=C(\C)CO)C5=O)C3=O)C=CC(C)(C)O2 (stereo not shown) [isomorellinol, reference compound]",cytotoxicity,[17],cytotoxic
same,cytotoxicity,[18],cytotoxic
"CN[C@@H]1C[C@H]2O[C@@](C)([C@@H]1OC)n1c3ccccc3c3c4c(c5c6ccccc6n2c5c31)C(=O)NC4 [staurosporine, reference compound]",PARP cleavage,[19],no cleavage of PARP
same,PARP cleavage,[20],no cleavage of PARP
Isogambogic Acid [Example 18],cytotoxicity,[17],cytotoxic
same,cytotoxicity,[18],cytotoxic
